{
  "source": "patent US6872730B2",
  "about": "“Substituted benzofurans and benzothiophenes, methods of making and methods of use as integrin antagonists” (3-Dimensional Pharmaceuticals, Inc., priority 2001, dated 2005)",
  "biological_target": "T1, human αvβ3 (Homo sapiens, UniProt P05106+P06756)",
  "T1 construct": "purchased Chemicon CC1019",
  "T1 sequence (P06756 31-889 limits assumed)": "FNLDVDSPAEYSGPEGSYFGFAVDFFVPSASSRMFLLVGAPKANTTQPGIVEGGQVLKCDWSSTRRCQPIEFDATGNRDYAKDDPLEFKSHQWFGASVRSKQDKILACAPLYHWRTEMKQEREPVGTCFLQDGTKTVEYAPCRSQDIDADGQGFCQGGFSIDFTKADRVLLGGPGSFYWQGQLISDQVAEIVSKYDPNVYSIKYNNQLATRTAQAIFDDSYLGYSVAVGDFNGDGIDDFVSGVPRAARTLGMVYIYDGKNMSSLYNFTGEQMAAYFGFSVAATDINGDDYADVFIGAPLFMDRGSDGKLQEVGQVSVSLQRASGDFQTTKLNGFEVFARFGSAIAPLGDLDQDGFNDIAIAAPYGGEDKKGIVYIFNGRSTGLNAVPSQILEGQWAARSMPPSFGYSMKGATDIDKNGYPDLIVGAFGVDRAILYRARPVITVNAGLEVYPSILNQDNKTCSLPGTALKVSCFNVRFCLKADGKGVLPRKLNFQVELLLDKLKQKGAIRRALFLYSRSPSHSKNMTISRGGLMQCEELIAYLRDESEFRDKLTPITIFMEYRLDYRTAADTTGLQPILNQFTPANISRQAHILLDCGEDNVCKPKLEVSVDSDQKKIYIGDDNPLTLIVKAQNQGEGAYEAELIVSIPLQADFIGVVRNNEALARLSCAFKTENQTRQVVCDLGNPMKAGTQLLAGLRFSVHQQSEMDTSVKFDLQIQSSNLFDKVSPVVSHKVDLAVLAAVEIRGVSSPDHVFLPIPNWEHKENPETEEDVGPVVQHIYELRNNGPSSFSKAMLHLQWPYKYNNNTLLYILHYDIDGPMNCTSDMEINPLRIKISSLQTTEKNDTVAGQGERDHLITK",
  "T1 sequence (P06756 891-1048 partner limits assumed)": "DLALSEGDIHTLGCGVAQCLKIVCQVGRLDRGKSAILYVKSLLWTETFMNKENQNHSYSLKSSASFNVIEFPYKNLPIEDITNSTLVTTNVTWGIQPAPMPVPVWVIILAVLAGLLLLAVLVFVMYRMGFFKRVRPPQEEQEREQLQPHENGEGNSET",
  "T1 sequence (P05106 27-788)": "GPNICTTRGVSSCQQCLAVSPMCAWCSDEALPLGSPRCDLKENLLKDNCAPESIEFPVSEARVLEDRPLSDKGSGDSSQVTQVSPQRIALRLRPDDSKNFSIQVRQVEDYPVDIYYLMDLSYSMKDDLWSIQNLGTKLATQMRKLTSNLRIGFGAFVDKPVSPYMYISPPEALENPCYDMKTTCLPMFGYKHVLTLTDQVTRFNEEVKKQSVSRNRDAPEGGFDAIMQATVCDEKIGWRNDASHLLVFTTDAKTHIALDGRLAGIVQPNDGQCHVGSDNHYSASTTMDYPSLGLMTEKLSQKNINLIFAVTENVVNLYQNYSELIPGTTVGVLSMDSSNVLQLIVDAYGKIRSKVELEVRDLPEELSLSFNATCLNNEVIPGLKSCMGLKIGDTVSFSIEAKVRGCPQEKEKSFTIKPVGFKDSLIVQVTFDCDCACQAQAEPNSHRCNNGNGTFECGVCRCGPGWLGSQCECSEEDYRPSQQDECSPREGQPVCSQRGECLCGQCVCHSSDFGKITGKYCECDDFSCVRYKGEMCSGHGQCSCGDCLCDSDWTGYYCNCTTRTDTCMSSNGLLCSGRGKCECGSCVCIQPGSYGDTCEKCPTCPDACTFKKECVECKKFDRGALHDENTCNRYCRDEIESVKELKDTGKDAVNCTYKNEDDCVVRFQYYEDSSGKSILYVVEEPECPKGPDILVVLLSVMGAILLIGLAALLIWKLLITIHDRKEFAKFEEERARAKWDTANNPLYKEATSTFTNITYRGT",
  "test": "αvβ3-vitronectin assay",
  "assay_type": "binding",
  "conditions": "ELISA plate coated with human αvβ3, biotinylated human vitronectin, room temperature; read-out: IC50 for inhibition of the αvβ3-vitronectin interaction",
  "protocol": "The assay is based on the method of Dennis (Dennis, M. S., et al., Proteins 15: 312-321 (1993)). Costar 9018 flat-bottom 96-well ELISA plates were coated overnight at 4° C. with 100 μL/well of 10 μg/mL human fibrinogen (Calbiochem 341578) in 20 mM Tris-HCl pH 7.5, 150 mM NaCl, 2 mM CaCl2, 0.02% NaN3 (TAC buffer), and blocked for 1 hr at 37° C. with 150 μL/well of TAC buffer containing 0.05% Tween 20 and 1% bovine serum albumin (TACTB buffer). After washing 3 times with 200 μL/well of 10 mM Na2 HPO4 pH 7.5, 150 mM NaCl, 0.01% Tween 20 (PBST buffer), controls or test compound (0.027-20.0 μM) were mixed with 40 μg/mL human GPIIbIIIa (Enzyme Research Laboratories) in TACTB buffer, and 100 μL/well of these solutions were incubated for 1 hr at 37° C. The plate was then washed 5 times with PBST buffer, and 100 μL/well of a monoclonal anti-GPIIbIIIa antibody in TACTB buffer (1 μg/mL, Enzyme Research Laboratories MabGP2b3a) was incubated at 37° C. for 1 hr. After washing (5 times with PBST buffer), 100 μL /well of goat anti-mouse IgG conjugated to horseradish peroxidase (Kirkegaard & Perry 14-23-06) was incubated at 37° C. for 1 hr (25 ng/mL in PBST buffer), followed by a 6-fold PBST buffer wash. The plate was developed by adding 100 μL/well of 0.67 mg o-phenylenediamine dihydrochloride per mL of 0.012% H2O2, 22 mM sodium citrate, 50 mM sodium phosphate, pH 5.0 at room temperature. The reaction was stopped with 50 μL/well of 2M H2SO4, and the absorbence at 492 nm was recorded. Percent (%) inhibition was calculated from the average of three separate determinations relative to buffer controls (no test compound added), and a four parameter fit (Marquardt, D. W., J. Soc. Indust. Appl. Math. 11:431-441 (1963)) was used to estimate the half maximal inhibition concentration (IC50).\nThe assay was based on the method of Niiya (Niiya, K., et al., Blood 70:475-483 (1987)). […] Following a 5-fold PBST buffer wash, the plate was developed and results were calculated as described for the fibrinogen-IIbIIIa assay.",
  "data": [
    {"smiles": "O=C(O)CCc1csc2cc(OCCc3ccc4c(n3)NCCC4)ccc12", "note": "[Example 2, 3-{6-[2-(5,6,7,8-Tetrahydro-[1,8]naphthyridin-2-yl)-ethoxy]-benzo[b]thiophen-3-yl}-propionic acid]", "values": [
      {"measurement": "IC50", "value": 8, "unit": "nM"}
    ]},
    {"smiles": "CNc1cccc(CCOc2ccc3c(CCC(=O)O)coc3c2)n1", "note": "[Example 3, 3-(6-{2-[6-(Methylamino)-2-pyridyl]ethoxy}benzo[b]furan-3-yl)propanoic acid]", "values": [
      {"measurement": "IC50", "value": 33, "unit": "nM"}
    ]},
    {"smiles": "CNc1cccc(CCOc2ccc3c(CCC(=O)O)csc3c2)n1", "note": "[Example 1, 3-(6-{2-[6-(methylamino)-2-pyridyl]ethoxy}benzo [b]thiophen-3-yl)propanoic acid]", "values": [
      {"measurement": "IC50", "value": 30, "unit": "nM"}
    ]}
  ]
}
